Source: EP3981864A1, “DETERGENT COMPOSITION” (priority 2020, dated 2022)

How the values were obtained:
[1] = tested on: Mycolicibacterium fortuitum αDOX (SEQ ID NO: 14), fatty acid alpha-dioxygenase, K0VM18, N-terminal His-tag variant SEQ ID NO: 275 (comparative); assay: Alpha-dioxygenase activity assay (oxygen consumption, TON); assay type: biochemical; conditions: fatty acid 100 µM, enzyme 6 ppm, 50 mM HEPES pH 9.0, 37°C; initial rate of oxygen consumption / enzyme concentration
Source text: (§1) Mycolicibacterium fortuitum αDOX (SEQ ID NO: 14) is a fatty acid alpha-dioxygenase that converts fatty acids into the corresponding 2-hydroperoxy fatty acids and is included as a comparative example of the present invention. A codon optimized gene (SEQ ID NO: 274) encoding for an alpha-dioxygenase variant (SEQ ID NO: 275), including an N-terminal amino acid sequence containing a His-tag was designed and synthesized by Genscript. After gene synthesis, the protein was expressed and purified. In brief, the complete synthetic gene sequence was subcloned into a pET30a vector using the NdeI/HindIII cloning sites. For heterologous expression, Escherichia coli BL21 (DE3) cells were transformed with the recombinant plasmid and a single colony was inoculated into LB medium containing kanamycin (50 mg/L). A pre-starter culture was then inoculated into flasks containing Magic Media (Thermo Fisher, Catalog # K6803) supplemented with kanamycin (50 mg/L) and incubated at 16 °C for 72 h. At an OD600nm = 0.5 - 1.0, 5-aminolevulinic acid (final concentration 0.5 mM) was added. Cells were harvested by centrifugation at 5000 rpm and 4°C and the pellet was lysed using a bacterial cell lysis buffer (B-PER - Themo Fisher, Waltham, MA). After centrifugation, the supernatant was collected, and the protein was purified by one-step purification using HisPur™ Ni-NTA Spin Columns (Thermo Scientific, Catalog # 88226) and standard protocols known in the art. […]
(§2) Reactions with alpha-dioxygenases were performed as follows. […] The reaction was incubated for up to 10 minutes at 37°C with 200 rpm agitation and the conversion was monitored using an oxygen sensor. The TON (in s-1) were calculated as the ratio between the initial rate of oxygen consumption (in µM/s) and the concentration of enzyme (in µM). […]

[2] = target: T1, Oryza sativa αDOX (SEQ ID NO: 1), fatty acid alpha-dioxygenase, Q9M5J1, N-terminal His-tag variant SEQ ID NO: 249 (Oryza sativa subsp. japonica, UniProt Q2QRV3); assay: as above; assay type: biochemical; conditions: fatty acid 100 µM, enzyme 6 ppm, 50 mM HEPES pH 9.0, 37°C; initial rate of oxygen consumption / enzyme concentration
T1 construct: made in house; host or cells: Escherichia coli BL21 (DE3), pET30a
T1 sequence (Q2QRV3 1-618): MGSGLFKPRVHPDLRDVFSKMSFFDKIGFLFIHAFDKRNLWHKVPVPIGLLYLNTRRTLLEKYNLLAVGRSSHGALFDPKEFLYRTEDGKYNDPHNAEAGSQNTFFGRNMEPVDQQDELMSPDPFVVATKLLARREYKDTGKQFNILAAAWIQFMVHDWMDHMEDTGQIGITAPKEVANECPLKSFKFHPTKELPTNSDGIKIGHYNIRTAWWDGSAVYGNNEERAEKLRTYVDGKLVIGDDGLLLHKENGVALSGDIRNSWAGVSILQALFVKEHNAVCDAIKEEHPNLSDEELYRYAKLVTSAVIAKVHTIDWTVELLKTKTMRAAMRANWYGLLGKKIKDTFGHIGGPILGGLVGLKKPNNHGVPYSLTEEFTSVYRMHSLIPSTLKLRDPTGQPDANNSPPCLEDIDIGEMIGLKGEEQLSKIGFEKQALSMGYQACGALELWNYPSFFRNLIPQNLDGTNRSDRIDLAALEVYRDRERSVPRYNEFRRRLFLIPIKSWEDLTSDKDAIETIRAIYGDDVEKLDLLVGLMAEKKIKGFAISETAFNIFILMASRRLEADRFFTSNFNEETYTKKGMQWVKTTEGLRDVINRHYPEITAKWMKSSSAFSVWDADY
Source text: as §1, with “Oryza sativa” for “Mycolicibacterium fortuitum”, “1)” for “14)”, “an” for “a comparative”, “248)” for “274)”, “249),” for “275),”, “art. The protein was concentrated using a 10 kDa MW cutoff Amicon Ultra centrifugal filter unit (Millipore Sigma, Catalog# UFC901024), followed by desalting using a disposable PD-10 desalting column (GE Healthcare Life Sciences, Catalog# 17085101) and a buffer containing 50 mM Tris-HCl, 500 mM NaCl, and 10% Glycerol at pH 8.0.” for “art.”
as §2

CCCCCCCC/C=C\CCCCCCCC(=O)O [Oleic Acid]
Oleic Acid, TON [1]: 0.00 s⁻¹
Oleic Acid, TON [2]: 5.54 s⁻¹

CCCCCCCCCCCCCCCCCC(=O)O [Stearic Acid]
Stearic Acid, TON [1]: 0.03 s⁻¹
Stearic Acid, TON [2]: 8.02 s⁻¹

CCCCCCCCCCCCCCCC(=O)O [Palmitic Acid]
Palmitic Acid, TON [1]: 0.21 s⁻¹
Palmitic Acid, TON [2]: 20.58 s⁻¹
